Tests used:
[1] = tested on: T cell lines derived from one HLA-DRB1*0404 patient (ThHo); experiment: Reactivity of GAD-reactive human T cell lines to synthetic GAD peptides (3H-thymidine proliferation); assay type: cell-based; conditions: for number of T cell lines stimulated: of 4 T cell lines
Procedure: T-cell clones were rested (not given IL-2 for 2 days, at least 7 days post-stimulation with antigen), washed, counted and resuspended in 15% PHS medium. They were plated at 25,000 cells/well in […] 15% PHS medium. Autologous or HLA-class II-matched PBMNCs are loaded with GAD by incubating with GAD (about […]) for at least 5 hours. The cells are washed and irradiated with 3000 rads. These cells are washed and resuspended in 15% PHS medium, and added to the T-cells at a concentration of 1×10^6 cells/well in […] 15% PHS medium. The cells were incubated for 48 hours, then pulsed with […] 3H-thymidine and harvested. A positive response is considered to be a stimulation index >3 (stimulation index SI=average cpm of sample stimulated with antigen/average cpm of sample of cells stimulated with no antigen or control antigen). Some controls include T-cells alone, stimulators alone, a purified negative antigen, GAD purified from baculovirus, PHA, and IL-2.
Other methods, well known in the art, for testing clones and lines include dose response to antigen; response to these antigens or negative antigen controls; determination of HLA-class II restriction by adding blocking anti-HLA class II antibody to plates; and use of peptides to load stimulators to determine peptide specificity, which can be done as described above except the peptides are tested by dose titration and left in the assay. A dose response in combination with peptide specificity tests can also be done.
Four individual T cell lines derived from one HLA-DRB1*0404 patient (ThHo) were used to map the 74 synthetic GAD peptides, overlapping sets of 20 mers, that span the entire length of GAD 65 (SEQ. ID. NO. 59). Antigen presenting cells, BLS-DRB1*0404 and/or BLS-DRB1*0401 (Kovats et al., J. Exp. Med. 179:2017-22, 1994), were loaded with peptide by incubating with peptide (about […]) for at least 5 hours. Reactivity of T-cells was determined as above. One peptide, hGAD 33 ([…] SEQ. ID. NO. 40) stimulated 3 or the 4 lines with BLS-B1*0404. […]

[2] = tested on: C-terminal amidated GAD65+I-A^g7 restricted T cell hybridomas (MBD.1, MBD2.3, MBD2.7, MBD2.8, MBD2.11, MBD2.14); experiment: Activation of GAD65 restricted T-cell hybridomas, read as CTLL proliferation in response to IL-2; assay type: cell-based, NOD mouse; conditions: hybridoma MBD.1; peptide + I-A^g7 of NOD APCs; CTLL cells
Procedure: To determine specificity of the T-cell hybridomas, antigen-presenting cells (APCs) were prepared by grinding NOD mice spleens and lysing as in Example 11. The splenocytes were brought to 3 ml in Bruff's medium containing 10% FBS. Mitomycin C (Sigma) was added at 0.3 ml per 3 ml of cell suspension to prevent DNA synthesis. The APCs were incubated for 30 minutes in a 37° C. water bath, and then washed 3 times in Bruff's medium containing 10% FBS, each time centrifuging for 5 minutes at 1200 RPM. After the final wash, the APCs were brought to a concentration of 2×10^6 cells/ml in Bruff's medium containing 10% FBS. C-terminal amidated GAD65 peptide was titered from 333 μg/ml to 0.15 μg/ml in round bottom 96 well plates. Fifty microliters (1×10^5) APCs were added to the peptides. Hybridomas were counted and brought to a concentration of 1×10^6 cells/ml in Bruff's medium containing 10% FBS, and 100 μl (1×10^5) cells was added to each well. Hybridomas were also tested against the following: I-A^g7 MHC +a peptide other than C-terminal amidated GAD65; an MHC other than I-A^g7+C-terminal amidated GAD65; the I-A^g7 MHC alone; and C-terminal amidated GAD65 alone. The plate was incubated at 37° C., 5% CO2, overnight. […] Incorporation of ^3H-thymidine into the DNA was measured on a Wallac 1205 Betaplate Beta Counter (Turku, Finland). […]

NOD recipient mice = experiment: Adoptive transfer of IDDM with splenocytes from diabetic NOD mice; assay type: in vivo, NOD mouse
Source text: IDDM can also be adoptively transferred by transplanting splenic cells from a diabetic-donor to a non-diabetic recipient (Baron et al., J. Clin. Invest. 93:1700-08, 1994). This method involves treating in vivo activated mature T cells. Briefly, NOD/CaJ mice are irradiated (730 rad) and randomly divided into treatment groups. Splenocytes, preferably about 1.5×10^7, from newly diabetic mice are isolated and injected intravenously into non-diabetic NOD 7-8 week old recipient mice, followed six hours later with intravenous injections of saline, peptide or MHC:peptide complex at 10, 5, or 1 μg/mouse. The injections are repeated on days 4, 8 and 12 following the original injection. Mice are tested for the onset of diabetes by urine analysis, and at the time of sacrifice, blood glucose. Treatment of these mice with an MHC:peptide complex is expected to lengthen the time period before the onset of diabetes and/or to prevent or ameliorate the disease. […]
IDDM can be adoptively transferred by injecting splenic cells from a diabetic donor into a non-diabetic recipient. […] Those animals showing positive urine values of at least 250 mg/dl glucose were further analyzed for blood glucose levels using tail clippings, and if the blood glucose was also at or above 250 mg/dl, the mice were classified as overtly diabetic. […]

NOD MHC Class II I-A^g7 = conditions: known from the literature (Reich et al.); cited from earlier work

## PGGAISNMYA [ID; NO; 41]
[1]; APC BLS-B1*0404 versus BLS-DRB1*0401
  stimulation of T-cell line, HLA restriction: stimulated the same T-cell line only when presented by BLS-B1*0404

## PGGAISNMYAM [ID; NO; 39]
[1]; presented by either BLS-B1*0404 or BLS-DRB1*0401
  number of T cell lines stimulated: one

## SRLSKVAPVIKARMMEYGTT-NH2 [C-terminal amidated GAD65 peptide]
[2]
  proliferative response, incorporated 3H-thymidine: > 5000 cpm
NOD recipient mice; 10 μg/mouse peptide alone
  mice that had developed disease by day 30: over 75%
NOD recipient mice; mouse, in vivo
  overall effect on onset of diabetes in the adoptive transfer model: accelerated the onset of diabetes

## PGGAISNMYAMMIARFKMFP (PGGAISNMYAMMIARFKNFP) [hGAD 33, ID; NO; 40]
[1]; peptide presented by BLS-B1*0404
  number of T cell lines stimulated: 3

## SRLSKVAPVIKARMMEYGTT [same GAD65 peptide (aa 524-543) with a carboxylic group at the C-terminus]
[2]
  proliferative response (lesser response): > 2000 CMP

## MSA: Mouse serum albumin (MSA), a known allele-specific peptide (SEQ. ID. NO. 61), positive control
NOD MHC Class II I-A^g7
  affinity for I-A^g7 (control peptides): high affinity

Source: patent US20020151707A1, “Immune mediators and related methods” (Corixa Corp., priority 1995, published 2002)
